Measurements taken from patent publication US8383554B2, “Quantitative microarray of intact glycolipid CD1d interaction and correlation with cell-based cytokine production” (Academia Sinica, priority 2008, dated 2013).
Entries after “also recorded” stand apart in the source; their conditions may differ. Read-outs that look alike come from different tables or passages of the source.

Columns and labels:
[1] = molecular target: T1, mCD1d:Ig fusion protein (CD1d) (Mus musculus, UniProt P11609); test: Competitive binding assay on microarray (Ki in solution); conditions: for binding to CD1d in competition assay (in words): relative to α-GalCer or parent compound; for Ki: competition against surface compound 1, CD1d ~100-200 nM
T1 construct: purchased BD Bioscience
T1 sequence (P11609 22-305 limits assumed): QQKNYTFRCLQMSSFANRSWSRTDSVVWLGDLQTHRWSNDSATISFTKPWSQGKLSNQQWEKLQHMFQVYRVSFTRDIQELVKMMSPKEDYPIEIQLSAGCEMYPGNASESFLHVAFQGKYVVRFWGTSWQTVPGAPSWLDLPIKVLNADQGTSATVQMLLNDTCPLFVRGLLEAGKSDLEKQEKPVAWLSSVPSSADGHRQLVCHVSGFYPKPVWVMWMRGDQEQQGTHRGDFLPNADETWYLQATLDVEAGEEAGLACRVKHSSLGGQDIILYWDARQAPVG
T1 sequence (P01887 21-119 partner): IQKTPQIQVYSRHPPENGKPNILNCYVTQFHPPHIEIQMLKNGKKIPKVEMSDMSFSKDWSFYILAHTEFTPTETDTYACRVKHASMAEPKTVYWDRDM
Excerpt: Determination of Ki. The solution equilibrium dissociation constant (Ki) for glycolipid-CD1d interactions can be determined using microarrays in a competitive assay. The equation that describes the binding of the two ligands to the same site on the protein is identical to that for the competitive inhibition of an enzyme-catalyzed reaction. It is possible to take advantage of the convenience of IC50 measurements and still report inhibitory potency in terms of true Ki values. The final forms of the relationship can be expressed as
In this assay, the concentration of the protein is kept constant at or near the KD, surf (˜100-200 nM of CD1d). The glass slide is incubated with solutions containing varying concentrations of the glycolipid (covering about two orders of magnitude) and the protein.
Microarray Fabrication. Microarrays were printed (Genomic Solutions, Gene Machine) by robotic pin (SMP2B, TeleChem International Inc.). Approximately […] of various concentrations of amine-containing compounds 1-4 in DMSO were deposited onto slides from a 384 well plate. The slide for: (1) the scope of printing concentration studies: NHS-coated glass slides were printed with compounds 1-4 at 20 different concentrations (1000, 800, 600, 400, 200, 100, 80, 60, 40, 20, 10, 8, 6, 4, 2, 1, 0.8, 0.6, 0.4, 0.2 μM) from right to left with 10 replicates vertically placed in each sub-array. Six identical sub-arrays were fabricated in a 1×6 pattern and each sub-array consisted of a 20×10 pattern of spots, with a 0.3 mm pitch. After 2 h, the surface of the slide was divided by permanent marker to avoid contamination for later protein incubation; (2) the slide for FIG. 2 was printed with compound 1 with concentrations of 1000 (left most column), 900, 800, 700, 600, 500, 400, 300, 200, 100, 80, 60, 40, 20, 10, 5 μM (right-most column, 16 different conc.) with 16 replicates vertically placed in each grid, and totally 16 replicate (8×2 pattern) sub-arrays in one slide; (3) the slides for Ki determinations: the slides were printed of compound 1 with concentration of 1000, 900, 800 μM from right to left 81 replicates placed in each grid (9×9 pattern) and totally 44 sub-arrays replicates (4×11 pattern, each subarray is approximately 5 mm (width)×6 mm (length) area) in one slide. After 24 hours reaction, the slides were washed with PBST buffer (0.05% Tween 20) for 30 min and then blocked with blocking solution (super-block blocking buffer in PBS, Pierce) for another 1 h. The slides were dried under a flow of argon gas and stored at room temperature in a desiccator. The slides were washed with PBS buffer (pH 7.4) before use.
Competitive Binding Assay. Solutions of the competitors at different concentration (400 to 0.1 μM) were prepared and 5 μl aliquots incubated with protein (5 μl, 100˜250 nM). The mixture was then placed in a 384 well microtiter plate, covered, and left for five to eight hours. An aliquot of this solution (8 μL) was loaded onto the slides and incubated for 1 hour under a humidifying container at room temperature. The following procedure is the same as above the direct binding assay in washing procedure and applying secondary antibody. To get the data, Each inhibitor was assayed under this system at least three times and average Ki values are reported.
Data analysis. Extraction of spot intensity data was performed using ArrayVision 8.0 (Applied Precision). The background, calculated as the median of pixel intensities from the local area around each spot, was subtracted from the mean pixel intensity within each spot. To graphically represent the data, the values of the background-subtracted signal intensities were plotted against the known concentration of the protein spotted in the array, using the commercial non-linear regression program GraphPad PRISM 4 (GraphPad, San Diego). The values obtained from the competition assay were plotted against the known concentrations of the competitors applied on the slide. […]

[2] = tested on: human Vα24+ NKT cell line co-cultured with Hela cells transfected with human CD1d; test: Cytokine secretion assay using human NKT cell lines, IFN-γ by ELISA; type: cell-based; conditions: 10 ng/ml glycolipid, 24 hours; for IFN-γ secretion (in words): relative to α-GalCer
Procedure: Generation of Vα24+ human NKT cell lines. Human NKT cell lines, expressing the Vα24+ T cell receptor (TCR), were generated as follows: Vα24+ T cells and CD14+ cells were isolated from leukopaks using magnetic beads (Miltenyi biotec, Auburn, Calif.) coupled to an anti-Vα24+ TCR monoclonal antibody and an anti-CD14 monoclonal antibody, respectively. Immature dendritic cells were generated from the CD14+ cells after a three-day incubation in the presence of 300 U/ml GM-CSF (R&D systems, Minneapolis, Minn.) and 100 U/ml IL-4 (R&D systems, Minneapolis, Minn.). Following irradiation with 3000 rads, the immature dendritic cells were co-cultured with syngeneic Vα24+ T cells in the presence of 100 ng/ml of α-galactosylceramide and 10 IU/ml of IL-2 (R&D systems, Minneapolis, Minn.) for 10 days.
Cytokine Secretion Assay using human NKT cell lines. Twenty-thousand cells of a human NKT cell line and 2×10^4 Hela cells transfected with human CD1d that had been irradiated for 10,000 rads, were co-cultured in the presence of 10 ng/ml of each glycolipid in a 96-well plate. After culture for 24 hours, the concentration of IFN-γ or IL-4 in the culture supernatants was determined by ELISA (BD Pharmingen, San Diego, Calif.).

[3] = Water solubility of glycolipids; type: physicochemical
CD1d [4] = conditions: read-out: dissociation constant from IEF; cited from earlier work
CD1d [5] = conditions: read-out: dissociation constant from ITC; cited from earlier work

Row | SMILES | binding to CD1d in competition assay (in words) [1] | IFN-γ secretion (in words) [2] | selectivity IFN-γ vs IL-4 (in words) [2] | further results
1 | CCCCCCCCCCCCCC[C@@H](O)[C@@H](O)[C@H](CO[C@H]1O[C@H](CO)[C@H](O)[C@H](O)[C@H]1O)NC(=O)CCCCCCCCCCc1ccccc1 [Compound 16] | about one order of magnitude stronger with CD1d than α-GalCer | – | – | –
2 | CCCCCCCCCCCCCC[C@@H](O)[C@@H](O)[C@H](CO[C@H]1O[C@H](CO)[C@H](O)[C@H](O)[C@H]1O)NC(=O)CCCCCCCc1ccc(OC)cc1 [Compound 19] | – | highest IFN-γ cytokine production, more than double that of the α-GalCer induced IFN-γ secretion | – | –
3 | CCCCCCCCCCCCCC[C@@H](O)[C@@H](O)[C@H](CO[C@H]1O[C@H](CO)[C@H](O)[C@H](O)[C@H]1O)NC(=O)CCCCCCCc1ccc(-c2ccccc2)cc1 [Compound 21] | lower binding activity; also recorded: weaker affinities to CD1d | less IFN-γ production | low selectivity between IFN-γ and IL-4 | –
4 | CCCCCCCCCCCCCCCCCCCCCCCCCC(=O)N[C@@H](CO[C@H]1O[C@H](CO)[C@H](O)[C@H](O)[C@H]1O)[C@H](O)[C@H](O)CCc1ccccc1 [Compound 26] | weaker agonist of mCD1d | – | – | –
5 | CCCCCCCCCCCCCC[C@@H](O)[C@@H](O)[C@H](CO[C@H]1O[C@H](CO)[C@H](O)[C@H](O)[C@H]1O)NC(=O)CCCCCCCCCCc1ccc(-c2ccccc2)cc1 [Compound 25] | lower binding activity | – | – | –
6 | CCCCCCCCCCCCCCCCCCCCCCCCCC(=O)N[C@@H](CO[C@H]1O[C@H](CO)[C@H](O)[C@H](O)[C@H]1O)[C@H](O)[C@H](O)CCCCCCCCCCCCCC [α-GalCer, α-galactosyl ceramide] | – | – | – | Ki [1]: 14 µM; solubility in aqueous solution (in words) [3]: low solubility; Kd (CD1d [4]): 5.9 µM; Kd (CD1d [5]): 9.7 µM
7 | CCCCCCCCCCCCCC[C@@H](O)[C@@H](O)[C@H](CO[C@H]1O[C@H](CO)[C@H](O)[C@H](O)[C@H]1O)NC(=O)CCCCCCCc1ccc(F)cc1 [Compound 18] | bind most strongly to CD1d; also recorded: enhance the binding by approximately one order of magnitude, compared with parent compound 13 | induce the most IFN-γ secretions; also recorded: highest IFN-γ cytokine production, more than double that of the α-GalCer induced IFN-γ secretion | more than three times more selective for IFN-γ release | Ki [1]: 0.14 µM; binding to CD1d in competition assay (in words) ([1]; listed as para-fluoroheptaphenyl-modified α-GalCer): two orders of magnitude stronger than α-GalCer
8 | CCCCCCCCCCCCCC[C@@H](O)[C@@H](O)[C@H](CO[C@H]1O[C@H](CO)[C@H](O)[C@H](O)[C@H]1O)NC(=O)CCCCCCc1ccccc1 [Compound 12] | about one order of magnitude stronger with CD1d than α-GalCer | – | – | –
9 | CCCCCCCCCCCCCC[C@@H](O)[C@@H](O)[C@H](CO[C@H]1O[C@H](CO)[C@H](O)[C@H](O)[C@H]1O)NC(=O)CCCCCCCc1ccccc1 [Compound 13] | about one order of magnitude stronger with CD1d than α-GalCer | peak IFN-γ secretions among the spacer chain elongation in acyl modification (11-17) | – | –
10 | CCCCCCCCCCCCCC[C@@H](O)[C@@H](O)[C@H](CO[C@H]1O[C@H](CO)[C@H](O)[C@H](O)[C@H]1O)NC(=O)CCCCCCCCCCCCCCc1ccccc1 [Compound 17] | weaker affinities to CD1d | less IFN-γ production | low selectivity between IFN-γ and IL-4 | –
